In brackets after ≈: the same amount, converted by molar mass. Each block holds one compound with its values, some of them ahead of it.
Legend:
[1] = Activation of rabbit psoas fast skeletal Myofibril; type: tissue-based, Oryctolagus cuniculus, Muscle tissue
[2] = Half life in mouse liver microsomes; type: ADME, Microsome
[3] = Aqueous solubility of compound at pH 7.4; type: physicochemical; conditions: buffer
[4] = Toxicity in Spinal muscular atrophy mouse assessed as survival rate at 10 mg/kg, ip administered daily; type: organism-based; conditions: in vivo
[5] = AUClast in Spinal muscular atrophy mouse plasma at 10 mg/kg, po by LC/MS-MS analysis; type: ADME, organism-based; design: dose 10 mg/kg, route po
[6] = Toxicity in Spinal muscular atrophy mouse assessed as survival rate at day 112 (reference value: 100 %); conditions: in vivo
[7] = AUClast in Spinal muscular atrophy mouse brain at 10 mg/kg, po by LC/MS-MS analysis; type: ADME, organism-based; design: dose 10 mg/kg, route po
[8] = Increase in SMN2 expression in human HEK293 cells assessed as luciferase reporter activity incubated for 24 hrs
m7GpppX diphosphatase = target: T1, m7GpppX diphosphatase (Homo sapiens, UniProt Q96C86); assay: Inhibition of human DcpS
T1 sequence (Q96C86 whole entry): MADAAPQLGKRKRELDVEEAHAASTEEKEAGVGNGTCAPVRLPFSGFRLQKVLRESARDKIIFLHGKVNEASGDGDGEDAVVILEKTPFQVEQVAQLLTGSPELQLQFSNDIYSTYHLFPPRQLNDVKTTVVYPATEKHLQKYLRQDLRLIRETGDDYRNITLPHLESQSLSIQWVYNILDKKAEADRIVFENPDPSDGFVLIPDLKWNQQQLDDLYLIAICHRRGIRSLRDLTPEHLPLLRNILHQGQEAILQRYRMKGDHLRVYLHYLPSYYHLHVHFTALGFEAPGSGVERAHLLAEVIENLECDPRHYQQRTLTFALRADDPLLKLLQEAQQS

Mus musculus [9] = assay: Modulation of human SMN2 mRNA level in Spinal muscular atrophy mouse muscle tissue at 10 mg/kg, po measured after 4 hrs; type: functional
Mus musculus [10] = assay: Modulation of human SMN2 mRNA level in Spinal muscular atrophy mouse brain tissue at 10 mg/kg, po measured after 4 hrs; type: functional
[11] = Toxicity in Spinal muscular atrophy mouse assessed as survival rate at 1 to 3 mg/kg, po administered daily for 65 days; type: organism-based; conditions: in vivo, 1560 h, dose 1-3 mg/kg, time 65 day
[12] = Toxicity in Spinal muscular atrophy mouse assessed as survival rate at 0.3 mg/kg, ip administered daily for 40 days; type: organism-based; conditions: in vivo, 960 h, time 40 day
Mus musculus [13] = assay: Modulation of human SMN2 protein level in Spinal muscular atrophy mouse model assessed as increase in protein level of muscle tissue at 10 mg/kg, ip
Mus musculus [14] = assay: Modulation of human SMN2 protein level in Spinal muscular atrophy mouse model assessed as increase in protein level of brain tissue at 10 mg/kg, ip
[15] = Toxicity in Spinal muscular atrophy mouse assessed as survival rate (reference value: 15 %); conditions: in vivo
[16] = Brain to plasma ratio in Spinal muscular atrophy mouse at 3 mg/kg administered subcutaneously for 7 days; type: ADME, organism-based; conditions: route sc, time 7 day, read-out: BPR
[17] = Brain to plasma ratio in Spinal muscular atrophy mouse at 3 mg/kg administered subcutaneously for 42 days; type: ADME, organism-based; conditions: route sc, time 42 day, read-out: BPR
[18] = Half life in human serum measured upto 30 min by HPLC analysis
[19] = Toxicity in Spinal muscular atrophy mouse assessed as survival rate after 5 days; conditions: in vivo, 120 h, time 5 day
[20] = Acute toxicity in Spinal muscular atrophy mouse assessed as survival rate; conditions: in vivo
[21] = Toxicity in Spinal Muscular atrophy mouse assessed as increase in survival rate; conditions: in vivo

EC50 [1]: 3.4 µM
SMILES: C#Cc1cnc2nc(O)n(C(CC)CC)c2n1

half-life [2]: 5 min | solubility [3]: 6 µM (≈ 1.7 µg/mL)
SMILES: CC(C)c1cc(C(=O)Nc2ccc(F)c(Cl)c2)no1

half-life [2]: 5 min | solubility [3]: 59 µM (≈ 13.6 µg/mL)
SMILES: CC(C)c1cc(C(=O)Nc2ccccc2)no1

SMILES: Nc1nc(N)c2c(OCC3CCN(Cc4c(Cl)cccc4Cl)CC3)cccc2n1
Activity [4]: 26% | AUC(0-t) [5]: 157 ng·h/mL | Activity [6]: 27% | AUC(0-t) [7]: 6760 ng·h/mL

half-life [2]: 40 min | solubility [3]: 4 µM (≈ 1.64 µg/mL) | EC50 at 24 h [8]: 8.3 µM
SMILES: COc1cc2c(c(OC)c1OC)C(c1cc(Br)ccc1F)CC(=O)N2 (stereo not drawn)

half-life [2]: > 120 min | solubility [3]: 77 µM (≈ 17.8 µg/mL)
SMILES: CC(C)c1cc(C(=O)Nc2ccccn2)no1

IC50 (m7GpppX diphosphatase): 0.036 µM
SMILES: Nc1nc(N)c2c(OCC3CCN(C(=O)c4cccc([125I])c4)CC3)cccc2n1

SMILES: CCN1CCC(c2cc(C)c3nc(-c4cc5c(C)nc(C)cn5n4)cc(=O)n3c2)CC1
Activity (Mus musculus [9]): 50% | Activity (Mus musculus [10]): 90% | Activity [11]: 90% | Activity [12]: 50% | Activity (Mus musculus [13]): 90% | Activity (Mus musculus [14]): 150%

SMILES: CC(C)CCC[C@@H](C)[C@H]1CC[C@H]2[C@@H]3CCC4=CC(=NO)CC[C@]4(C)[C@H]3CC[C@]12C [OLESOXIME]
Activity [15]: 45% | Kp at 168 h [16]: 0.35 | Kp at 1008 h [17]: 0.51

half-life at 0.5 h [18]: 6 min
SMILES: CCCC(=O)[O-].[Na+] [SODIUM BUTYRATE]

SMILES: CC(/C=C/C(=O)NO)=C\[C@@H](C)C(=O)c1ccc(N(C)C)cc1 [TRICHOSTATIN]
Activity [19]: 19% | Activity [20]: 40%

SMILES: O=C(CCCCCCC(=O)Nc1ccccc1)NO [VORINOSTAT]
Activity [21]: 30%

Reference: ChEMBL document CHEMBL5252529, “Small Molecules in Development for the Treatment of Spinal Muscular Atrophy” (J Med Chem, 2016)
